Reference: US8710021B2, “Inhibition of HRP-3 using modified oligonucleotides” (Bionucleon S.r.l., priority 2008, dated 2014)
“Also recorded” adds a separate entry of the source.

What was measured:
[1] = molecular target: soluble HRP-3 (Homo sapiens, UniProt Q9Y3E1); assay: In vitro anti-angiogenic activity (data not shown); assay type: cell-based
[2] = tested on: GI-LI-N cells; settings: 48 h
[3] = Acute toxicity in vivo in CD-1 female mice; settings: 3, 10 and 30 mg/kg i.v. or i.p.
Experimental: We have evaluated in vivo the acute toxicity of BN210. 30 CD-1 female mice (Charles River Italia s.r.l., Via Indipendenza, 11-23885 CALCO (Lecco)), weighing 21.8-22.9 g, were divided in 6 groups, each of 5 animals, and housed in Makrolon cages (type III) at a room temperature of 22±3° C. and at a relative humidity of 55±15%. Air changes were 180-220/hour. Three doses of BN210, dissolved in phosphate buffered saline, were tested: 3, 10 and 30 mg/kg given intravenously (i.v., via the tail vain) or intraperitoneally (i.p.). BN210 concentrations in the formulates were 0.155, 0.517 and 1.551 mg/ml, respectively. Mice were observed daily, twice/day, for the appearance of toxicity signs during the 14 days following drug administration. The parameters commonly checked in the Irvin test were taken into consideration. […] After 14 days of observation, all mice were sacrificed and dissected for gross pathology examination. Any sign or pathological alterations were the subject of close scrutiny during the necropsy.

[4] = molecular target: T1, HRP-3 (Homo sapiens, UniProt Q9Y3E1); assay: HRP-3 induced sprouting of HUVEC blocked by single strand oligonucleotides; assay type: cell-based; settings: recombinant HRP-3 plus synthetic oligo
T1 construct: The HRP-3 coding region was cloned into the pET30 vector using EcoRI and NdeI as restriction sites; made in house; host or cells: E. coli BL21
T1 sequence (Q9Y3E1 whole entry): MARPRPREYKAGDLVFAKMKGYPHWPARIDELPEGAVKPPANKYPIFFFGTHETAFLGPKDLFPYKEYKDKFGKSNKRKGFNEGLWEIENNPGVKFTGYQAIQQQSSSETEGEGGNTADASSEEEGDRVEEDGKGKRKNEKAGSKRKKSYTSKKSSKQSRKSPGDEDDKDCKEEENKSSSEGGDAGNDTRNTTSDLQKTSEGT
Text: We tried to twice block the protein effect of human endothelial cells sprouting with a modified single strand oligonucleotides. In samples with recombinant protein, and synthetic oligos, SEQ ID NO. 16, 17, and 18 the number of sprouted spheroids was reduced as compared to samples with recombinant protein (FIG. 19).

[5] = tested on: GI-LI-N neuroblastoma xenograft; assay: Orthotopic neuroblastoma (GI-LI-N) xenograft survival in nude mice; assay type: in vivo; settings: VCR 1 mg/kg i.v. once a week for 5 weeks
Experimental: Mice were housed under specific pathogen-free conditions. The in vivo experiment was performed using five week old female athymic (Nude-nu) mice. Mice were anaesthetized with a mixture of xylazine (10 mg/kg) and ketamine (90 mg/kg) (Imalgene 1000, Merial Italia S.p.A., Milan, Italy), subjected to laparatomy, and orthotopically injected with the neuroblastoma (NB) cell line, GI-LI-N (1.5×10^6 cells in 10 μL of saline solution/mouse), in the capsule of the left adrenal gland, as previously reported (Pastorino F. et al., Cancer Res 63, 2003; Pastorino F. et al., Clin Cancer Res 2008). No mortality was observed following tumour cells implantation. NB tumours were allowed to grow from the injected cells for 22 days, then animals were randomly divided in 3 groups. One group was treated i.v., once a week for 5 weeks, with 1 mg/kg of vincristine (VCR, 5 administration in total). A second group of animals was treated with a combination of VCR (i.v. injection of 1 mg/kg, once a week for 5 weeks, 5 administration in total) and BN210 (i.p. injection of 7 mg/kg, 5 days/week, 20 administrations in total). Negative control mice were treated with HEPES-buffered saline. The significance of the differences between experimental groups (n=8 mice/group) in the survival experiments was determined by Kaplan-Meier curves by the use of Chi square log-rank test. […]

[6] = tested on: HUVEC cells; assay: HUVEC sprouting test; assay type: cell-based, human
Experimental: (§1) While no effects on the proliferation on BAEC and HUVEC cells were found, HRP-3 is able to induce HUVEC sprouting after 24 hours of stimulation. As shown in FIGS. 3 and 4 the HRP-3 can induce sprouting in HUVEC cells in a dose dependent manner. In FIG. 4 we have shown the negative control and the positive control with VEGF at 60 ng/ml. […] To be sure of ours results, experiments have been made in blind too.
Furthermore to confirm VEGF-independent angiogenic activity we performed another sprouting test with Avastin, anti-VEGF antibody in presence of VEGF and our protein.

[7] = molecular target: T1, HRP-3; assay: 3T3 migration in vitro assay: prevention of HRP-3 function by DNA duplexes; assay type: cell-based, mouse
Experimental: All the four DNA duplexes were tested in our 3T3 migration in vitro assay to see if they were able to prevent HRP-3 function by binding its PWWP domain (FIG. 13). […] The third column on the left is the negative control.

[8] = tested on: 3T3 cells; assay: 3T3 proliferation assay; assay type: cell-based, mouse
Experimental: (§2) In analogy with the reported HDGF activity on NIH 3T3 fibroblast, we decided to test the HRP-3 activity on these cells to develop a test able to report any interfering activity by a ligand able to bind the PWWP domain. Migration and proliferation assay of 3T3 cells in presence of increasing amounts of the protein were performed. These assays allow the definition of a strong anti-migratory effect of the HRP-3 protein, which at 30 ng/mL is able to prevent 50% of the 3T3 migration induced at 24 h by 5% FBS. This test was validated and is currently well reproducible, FIG. 2.

[9] = tested on: HUVEC; assay: Tube formation assay in Matrigel; assay type: cell-based, human; settings: after 24 hours, preliminary result
[10] = tested on: NIH 3T3 fibroblasts; assay: 3T3 migration assay in presence of increasing amounts of HRP-3; assay type: cell-based, mouse; settings: 30 ng/mL HRP-3, 24 h
Experimental: as §2

[11] = tested on: BAEC; assay: Proliferation of endothelial primary cells (BAEC); assay type: cell-based
Experimental: as §1

[12] = tested on: HUVEC; assay: HUVEC migration assay in presence of increasing amounts of HRP-3; assay type: cell-based, human; settings: 100 ng/ml HRP-3, 5 and 16 h
Experimental: Migration assay of HUVEC in presence of increasing amounts of the protein was performed (FIG. 9). These assay allows the definition of a anti-migratory effect of the protein on human endothelial cells in a dose-dependent manner, which at 100 ng/ml is able to prevent about 80% of the migration induced at 5 and 16 h by 5% FBS.

[13] = tested on: HUVEC cells; assay: mRNA expression in HUVEC by Real Time PCR; assay type: cell-based, human
Text: To understand the molecular basis of this stimulation, we studied mRNA expression of HRP-3 in HUVEC cell line by Real Time PCR. […] To understand if VEGF or VEGFR-2 was involved with the HRP-3 induced mechanism, we stimulated HUVEC cells with our HRP-3 and investigated mRNA levels of VEGF, VEGFR-2, HRP-3 and HDGF. The expression of those genes is not changed by HRP-3, FIGS. 5 and 6.

[14] = tested on: 3T3 cells; assay: 3T3 anchorage independent growth; assay type: cell-based, mouse
[15] = tested on: SH-SY5 neuroblastoma cells; assay: Proliferation assay of SH-SY5 cells; assay type: cell-based, human; settings: 100 ng/mL HRP-3, 24 and 48 h
Experimental: Angiogenesis plays a key role during neural differentiation, exerting a trophic activity on both neurons and glia. A variety of angiogenic factors have been identified so far to play an important role in the induction of angiogenesis in NBs, including vascular endothelial growth factor (VEGF). Proliferation assay of SH-SY5 and NCS-34 cells in presence of increasing amounts of the protein were performed. These assays allow the definition of a anti-proliferatory effect of the protein only on SHSY, which at 100 ng/mL is able to prevent 25% of the SH-SY5 proliferation induced at 24 and 48 h by 5% FBS.

[16] = tested on: HUVEC; assay: Proliferation of endothelial primary cells (HUVEC); assay type: cell-based, human
Experimental: as §1

Sequence of soluble HRP-3 (Q9Y3E1 whole entry): as above

5′-PEG (40 KDa)-(NH)-T*AC AACACCCACAAAAAAUTTGTGGGTGTT GTiA-3' (BTACAACACCCACAAAAAAUTTGTGGGTGTTGTA; 5'-PEG 40 kDa amino linker, 3' inverted nucleotide, hairpin, further chemistry not given here) [BN210]
anti-angiogenic activity in vitro [1]: anti-angiogenic activity | effect of addition on vincristine treatment ([2]; 250 nM BN210 with vincristine 0.15 to 5 nM): did not enhance or inhibit | clinical or behavioural signs of toxicity ([3]; 14 days observation): no signs of clinical or behavioural alterations | gross pathology at necropsy ([3]; after 14 days): No macroscopic signs or pathological changes

5′-TACAACACCCACAAAAAATTTGTGGGTGTTGTA-3' (TACAACACCCACAAAAAATTTGTGGGTGTTGTA; DNA, backbone and methylation of C not given here) [SEQ ID NO. 16]
number of sprouted HUVEC spheroids versus recombinant protein alone [4]: can block; also recorded: reduced

5′-TAC AAC ACC CAC AAA-[CH2CH2O]5-TTT GTG GGT GTT GTA-[CH2CH2O]5H-3' (TACAACACCCACAAABTTTGTGGGTGTTGTAB; PEG5 spacers, chemistry not fully specified) [SEQ ID NO. 18]
number of sprouted HUVEC spheroids versus recombinant protein alone [4]: reduced

5′-UACAACACCCACAAAAAAUUUGUGGGUGUUGUA-3' (2'-OMe) (UACAACACCCACAAAAAAUUUGUGGGUGUUGUA; all 2'-O-methyl, backbone not given here) [SEQ ID NO. 17]
number of sprouted HUVEC spheroids versus recombinant protein alone [4]: reduced

CC[C@]1(O)C[C@H]2CN(CCc3c([nH]c4ccccc34)[C@@](C(=O)OC)(c3cc4c(cc3OC)N(C=O)[C@H]3[C@@](O)(C(=O)OC)[C@H](OC(C)=O)[C@]5(CC)C=CCN6CC[C@]43[C@@H]65)C2)C1 [vincristine, reference compound]
life span compared to negative control mice [5]: did not show any increase of their life span | concentration inhibiting proliferation of GI-LI-N cells ([2]; MTT): 2.5 to 5 nM

Avastin: anti-VEGF antibody
effect on VEGF-mediated HUVEC sprouting ([6]; in presence of VEGF): blocks HUVEC sprouting VEGF-mediated

Duplex 2: derived DNA double strand with base changes versus Duplex 1, to test importance of sequence for binding (chain 1 TACAACATTCACAAA; chain 2 TTTGTGAATGTTGTA; chain 1: DNA, backbone and methylation of C not given here; chain 2: DNA, backbone not given here)
activity in abolishing the anti-migratory effect of HRP-3 on 3T3 cells [7]: modest activity

Duplex 3: derived DNA double strand designed to test different molecular shapes (chain 1 TACAACAAACCCACAAA; chain 2 TTTGTGGGTGTTGTA; chain 1: DNA, backbone and methylation of C not given here; chain 2: DNA, backbone not given here)
activity in abolishing the anti-migratory effect of HRP-3 on 3T3 cells [7]: no activity

Duplex 4: derived DNA double strand with base changes versus Duplex 1, to test importance of sequence for binding (chain 1 CACACACACACACAC; chain 2 GTGTGTGTGTGTGTG; chain 1: DNA, backbone and methylation of C not given here; chain 2: DNA, backbone not given here)
activity in abolishing the anti-migratory effect of HRP-3 on 3T3 cells [7]: no activity

HRP-3: recombinant HDGF Related Protein 3 with PWWP domain, cDNA from human cells, produced in E. Coli
concentration that blocks 3T3 proliferation [8]: 0.1 ng/mL | vessel-like network of HUVEC in tube formation assay [9]: able to maintain vessel-like network of HUVEC | prevention of 3T3 migration induced by 5% FBS [10]: 50% | effect on proliferation of BAEC [11]: no effects | prevention of HUVEC migration induced by 5% FBS [12]: about 80% | mRNA levels of VEGF, VEGFR-2, HRP-3 and HDGF after HRP-3 stimulation ([13]; HUVEC stimulated with HRP-3): not changed | concentration that blocks 3T3 anchorage independent growth [14]: 0.1 ng/mL | prevention of SH-SY5 proliferation induced by 5% FBS [15]: 25% | effect on proliferation of HUVEC [16]: no effects | concentration stimulating sprouting on HUVEC cells ([6]; 24 hours of stimulation): above 100 ng/ml

VEGF
HRP-3 mRNA levels after VEGF treatment ([13]; HUVEC treated with 60 ng/ml VEGF, versus negative control): no significant difference
